Results reported in article PMC6950750, “Newly Discovered Action of HpTx3 from Venom of Heteropoda venatoria on Nav1.7 and Its Pharmacological Implications in Analgesia” (Toxins, 2019).
Bridge positions count the residues as written; N and C are the ends. Peptide text beside a SMILES is read from it.

Key:
Nav1.2 = target: T1, Nav1.2 (Rattus norvegicus, UniProt P04775); test: Whole-cell patch-clamp, Nav1.2 currents in HEK293T cells; format: cell-based
T1 construct: expressed in transfected cells; host or cells: HEK293T
Description: (§1) All the used Nav channel subtype clones (Nav1.2–Nav1.9) and β subunit clones were preserved in our laboratory. cDNAs encoding rat Nav1.2, rat Nav1.3, human Nav1.5, and mouse Nav1.6 were subcloned into the vector pcDNA3.1; cDNA encoding rat Nav1.4 was subcloned into the vector pRGB4; cDNA encoding human Nav1.7 was subcloned into the vector pcDNA3.1-mod; cDNAs encoding rat Nav1.8 and human Nav1.9 were subcloned into the vectors pCMV-HA and pEGFP-N1, respectively. For localizing the binding sites of HpTx3 on the Nav1.7 and therefore probing the its mechanism of action, several chimeras were constructed with a recombination strategy by replacing the extracellular loop S3b–S4 in domain II, domain III, and domain IV of Nav1.7 with the counterpart sequences of Nav1.8, respectively, using the methods described. As a result, three chimeras were prepared, namely, Nav1.7/1.8DIIS3b–S4, Nav1.7/1.8DIII, and Nav1.7/1.8 DIV. […]
(§2) For heterologous expression, the vector plasmids containing wild-type (WT) Nav1.2–Nav1.7 and mutant plasmids were transiently transfected into HEK293T cells (China Center for Type Culture Collection, Wuhan, China) using Lipofectamine 2000 (Invitrogen, Carlsbad, CA, USA) according to the manufacturer’s instructions. […] The cells with green fluorescence were selected for whole-cell patch-clamp analysis 24 h after transfection. […]

Nav1.3 = target: T2, Nav1.3 (Rattus norvegicus, UniProt P08104); test: Whole-cell patch-clamp, Nav1.3 currents in HEK293T cells; format: cell-based
T2 construct: expressed in transfected cells; host or cells: HEK293T
Description: as §1, §2

Nav1.4 = target: T3, Nav1.4 (Rattus norvegicus, UniProt P15390); test: Whole-cell patch-clamp, Nav1.4 currents in HEK293T cells; format: cell-based
T3 construct: expressed in transfected cells; host or cells: HEK293T
Description: as §1, §2

Nav1.5 = target: T4, Nav1.5 (Homo sapiens, UniProt Q14524); test: cell-based; format: cell-based
T4 construct: expressed in transfected cells; host or cells: HEK293T
Description: as §1, §2

Nav1.6 = target: T5, Nav1.6 (Mus musculus, UniProt Q9WTU3); test: Whole-cell patch-clamp, Nav1.6 currents in HEK293T cells; format: cell-based; conditions: HEK-293T, 1 μM HpTx3, n = 4–6
T5 construct: expressed in transfected cells; host or cells: HEK293T
Description: as §1, §2

Nav1.7 [1] = target: T6, Nav1.7 (Homo sapiens, UniProt Q15858); test: Whole-cell patch-clamp, Nav1.7 currents in HEK293T cells; format: cell-based; conditions: wild type Nav1.7, HEK293T, mean ± SD, n = 4–6
T6 construct: expressed in transfected cells; host or cells: HEK293T
Description: as §1, §2

Nav1.7 D816N = target: T7, Nav1.7 D816N (Homo sapiens, UniProt Q15858, D827N); test: Whole-cell patch-clamp, mutant Nav1.7 D816N; format: cell-based
T7 construct: expressed in transfected cells; host or cells: HEK293T
Description: All the used Nav channel subtype clones (Nav1.2–Nav1.9) and β subunit clones were preserved in our laboratory. cDNAs encoding rat Nav1.2, rat Nav1.3, human Nav1.5, and mouse Nav1.6 were subcloned into the vector pcDNA3.1; cDNA encoding rat Nav1.4 was subcloned into the vector pRGB4; cDNA encoding human Nav1.7 was subcloned into the vector pcDNA3.1-mod; cDNAs encoding rat Nav1.8 and human Nav1.9 were subcloned into the vectors pCMV-HA and pEGFP-N1, respectively. For localizing the binding sites of HpTx3 on the Nav1.7 and therefore probing the its mechanism of action, several chimeras were constructed with a recombination strategy by replacing the extracellular loop S3b–S4 in domain II, domain III, and domain IV of Nav1.7 with the counterpart sequences of Nav1.8, respectively, using the methods described. As a result, three chimeras were prepared, namely, Nav1.7/1.8DIIS3b–S4, Nav1.7/1.8DIII, and Nav1.7/1.8 DIV. Moreover, the amino acid residues D816 and E818 in the S3b–S4 sequence of Nav1.7 were mutated into N (Nav1.7 D816N) and Q (Nav1.7 […]), respectively.
For heterologous expression, the vector plasmids containing wild-type (WT) Nav1.2–Nav1.7 and mutant plasmids were transiently transfected into HEK293T cells (China Center for Type Culture Collection, Wuhan, China) using Lipofectamine 2000 (Invitrogen, Carlsbad, CA, USA) according to the manufacturer’s instructions. […] The cells with green fluorescence were selected for whole-cell patch-clamp analysis 24 h after transfection.
The whole-cell patch-clamp technique was employed to analyze the effects of HpTx3 on Nav channel subtypes in the transfected HEK293T and ND7/23 cells using an EPC-10 USB patch-clamp amplifier (HEKA, Elektronik, Lambrecht, Germany). […] Data were collected with the PatchMaster software in the HEKA EPC-10 USB patch-clamp system (HEKA Elektronik, Lambrecht, Germany) and analyzed by the software Igo Pro-6.00, Prism (GraphPad Software, La Jolla, CA, USA), Sigmaplot 10.0 (Systat Software, Inc., San Jose, CA, USA), and OriginPro. […]

C57BL/6 mice = test: In vivo toxicity; design: species or system mouse (C57BL/6); conditions: 20 mg/kg i.p., 8 mice
Description: For detecting the potential in vivo toxicity of HpTx3, eight C57BL/6 mice were each intraperitoneally injected with HpTx3 at a dose of 20 mg/kg, which was 4-fold greater than the maximum dose (5 mg/kg) and 100-fold greater than the minimum dose (0.2 mg/kg) that were used in analgesic experiments.

hERG channel = test: Whole-cell patch-clamp, hERG channel in HEK293T cells; format: cell-based; conditions: 1 µM HpTx3, n = 3
Description: The effect of HpTx3 on the hERG channel expressed in HEK293T cells was assayed using the whole cell patch-clamp technique according to the previous method with some modifications. The bathing solution contained (in mM): HEPES 10, MgCl2 1, CaCl2 25, KCl 5, NaCl 50 (pH 7.4, adjusted with 1 M NaOH). The suction pipettes solution contained (in mM): MgCl2 2.5, KCl 140, EGTA 11, HEPES 10 (pH 7.2, adjusted with KOH). The osmotic pressure of the two solutions was adjusted to 280 ± 5 mOsm/L with sucrose. The currents of the hERG channel were induced at −40 mV after a test potential of +30 mV from a holding potential of −80 mV.

[2] = test system: nociceptive neuron excitability; conditions: orofacial and other regions in patients; cited from earlier work
Description: Kv4 channels are expressed predominately in the somata of small and large diameter nociceptors and the dorsal horn of the spinal cord, and all three Kv4 mRNA isoforms (Kv4.1–4.3) are expressed in whole DRG preparations. Overexpression of various components of the Kv4 complex attenuated DGR excitability and pain phenotypes of animals. The drugs that can increase A-type Kv ...

[3] = test system: C57BL/6 mice, formalin-induced pain model; test: Formalin-induced paw licking; format: in vivo, mouse (C57BL/6); conditions: morphine 1 mg/kg i.m., n = 8
Description: (§3) Healthy female C57BL/6 mice (weighting 18–20 g) that were used for analgesic activity assay were obtained from the Experimental Animal Center of SLac-kinda (Changsha, China) and were randomly assigned to five groups, each group generally containing 8 mice. […] The mice were maintained at a temperature of 20–25 °C and under a 12 h light/12 h dark cycle, with free access to food and water. The ethical approval for the in vivo animal experiments was obtained from the Animal Care and Use Committee of the Hunan Province Animal Management Office. (The approval code: 219/2019).
The changes in the formalin-induced nociceptive reaction in mice was used to assess the in vivo effect of HpTx3 on Nav1.7-mediated pain [74, 77, 78]. Paw licking, a pain-related behavior, was induced by subcutaneous intraplantar injection of formalin. […] The time that was spent to lick the injected paw by each mouse during phase I (0–10 min after injection) and phase II (15–35 min after injection) was separately recorded with a digital stopwatch. The nociceptive behavior attenuation by HpTx3 was evaluated by comparison of the paw licking times of the mice in each group.

[4] = test system: C57BL/6 mice, CFA pain model; test: Complete Freund’s adjuvant (CFA)-induced hyperalgesia; format: in vivo, mouse (C57BL/6); conditions: morphine 1 mg/kg i.m.
Description: as §3

[5] = test system: C57BL/6 mice, hot plate pain model; test: Hot plate test; format: in vivo, mouse (C57BL/6); conditions: morphine 1 mg/kg i.p.
Description: as §3
Hot plate test was conducted according to the method described. The hot plate test apparatus (model YSL-21, Jinan, China) was placed in a quiet room, and the temperature was set at 55 ± 1 °C. After each mouse was placed at the hot plate, its nociceptive responses (hind-paw licking or jumping) and nociceptive threshold (paw withdrawal latency) were observed and recorded. […] The mice displaying abnormal baseline paw withdrawals (shorter than 5 s and longer than 30 s) were excluded from the test.

C57BL/6 mice, SNI model = test: Spared nerve injury (SNI) model; format: in vivo, mouse (C57BL/6); conditions: morphine 1 mg/kg; 18 days after surgery; control 0.47 g; n = 8
Description: as §3

Nav1.7 [6] = conditions: cited from earlier work
Description: In order to further understand the actions of HpTx3 on the Nav1.7 channel, we examined the effect of the toxin on the current–voltage (I–V) relationship of the Nav channel subtype. […] When the conductance–voltage (G–V) relationship and the steady-state inactivation of Nav1.7 before and after HpTx3 treatment were inve ...

Nav1.1–1.8 = conditions: cited from earlier work
[7] = test system: rodent models of acute and inflammatory pain; conditions: cited from earlier work
[8] = HEK293T, whole-cell patch-clamp, mean ± SD, n = 4–6
[9] = also ref 20 (HwTx-IV), 36 (HnTx-III), 37 (HnTx-IV)

T7 sequence (Q15858 other isoform, or with tags, fused parts or gaps D816N): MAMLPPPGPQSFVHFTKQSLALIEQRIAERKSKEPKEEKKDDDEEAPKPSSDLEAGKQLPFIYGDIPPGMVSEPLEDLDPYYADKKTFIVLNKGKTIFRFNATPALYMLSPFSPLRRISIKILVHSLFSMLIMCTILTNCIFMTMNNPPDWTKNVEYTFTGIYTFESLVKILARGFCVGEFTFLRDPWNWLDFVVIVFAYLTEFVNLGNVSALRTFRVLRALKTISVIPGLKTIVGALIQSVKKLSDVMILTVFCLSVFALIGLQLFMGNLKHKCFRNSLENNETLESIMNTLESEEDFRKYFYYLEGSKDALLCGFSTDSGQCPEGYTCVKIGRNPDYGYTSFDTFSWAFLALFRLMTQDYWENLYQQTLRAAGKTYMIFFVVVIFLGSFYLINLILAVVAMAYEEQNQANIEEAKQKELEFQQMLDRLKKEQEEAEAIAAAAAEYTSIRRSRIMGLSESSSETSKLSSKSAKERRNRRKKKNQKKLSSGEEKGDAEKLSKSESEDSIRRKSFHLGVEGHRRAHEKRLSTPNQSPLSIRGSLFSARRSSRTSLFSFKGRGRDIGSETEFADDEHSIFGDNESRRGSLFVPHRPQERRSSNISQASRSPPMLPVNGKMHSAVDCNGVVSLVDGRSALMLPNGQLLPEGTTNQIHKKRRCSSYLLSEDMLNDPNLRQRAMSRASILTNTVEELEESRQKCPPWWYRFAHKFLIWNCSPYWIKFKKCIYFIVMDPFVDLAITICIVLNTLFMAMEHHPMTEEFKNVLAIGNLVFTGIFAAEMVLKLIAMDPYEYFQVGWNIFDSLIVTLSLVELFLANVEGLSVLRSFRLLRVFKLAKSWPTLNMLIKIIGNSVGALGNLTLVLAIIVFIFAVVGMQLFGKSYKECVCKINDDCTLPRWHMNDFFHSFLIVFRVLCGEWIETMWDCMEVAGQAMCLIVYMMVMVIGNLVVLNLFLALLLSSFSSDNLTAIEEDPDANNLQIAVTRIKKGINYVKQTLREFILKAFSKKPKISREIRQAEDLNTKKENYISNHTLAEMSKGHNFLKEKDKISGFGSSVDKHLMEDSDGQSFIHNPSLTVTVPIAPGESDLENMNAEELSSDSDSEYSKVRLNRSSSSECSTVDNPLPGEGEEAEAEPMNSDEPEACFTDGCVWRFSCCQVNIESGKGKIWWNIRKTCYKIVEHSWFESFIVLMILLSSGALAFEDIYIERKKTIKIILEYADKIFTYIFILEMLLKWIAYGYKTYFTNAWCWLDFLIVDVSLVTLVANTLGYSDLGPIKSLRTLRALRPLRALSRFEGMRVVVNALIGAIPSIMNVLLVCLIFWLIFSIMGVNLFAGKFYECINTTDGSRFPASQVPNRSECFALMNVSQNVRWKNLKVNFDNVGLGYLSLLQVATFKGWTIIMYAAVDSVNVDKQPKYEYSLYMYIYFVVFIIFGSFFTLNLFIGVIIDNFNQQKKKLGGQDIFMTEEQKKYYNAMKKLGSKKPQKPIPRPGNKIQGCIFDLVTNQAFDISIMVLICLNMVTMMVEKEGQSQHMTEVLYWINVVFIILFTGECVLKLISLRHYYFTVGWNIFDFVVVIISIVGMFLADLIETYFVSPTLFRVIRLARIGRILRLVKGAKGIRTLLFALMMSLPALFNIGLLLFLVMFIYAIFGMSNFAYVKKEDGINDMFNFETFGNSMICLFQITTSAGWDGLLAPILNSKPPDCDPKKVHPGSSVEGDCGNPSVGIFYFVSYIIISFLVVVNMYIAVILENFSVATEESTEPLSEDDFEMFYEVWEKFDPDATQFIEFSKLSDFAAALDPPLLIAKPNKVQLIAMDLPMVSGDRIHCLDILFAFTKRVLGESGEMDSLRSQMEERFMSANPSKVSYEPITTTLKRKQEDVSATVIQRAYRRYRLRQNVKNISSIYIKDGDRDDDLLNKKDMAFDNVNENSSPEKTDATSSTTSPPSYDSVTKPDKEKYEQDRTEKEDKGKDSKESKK
T7 sequence (Q07699 19-218, further chain): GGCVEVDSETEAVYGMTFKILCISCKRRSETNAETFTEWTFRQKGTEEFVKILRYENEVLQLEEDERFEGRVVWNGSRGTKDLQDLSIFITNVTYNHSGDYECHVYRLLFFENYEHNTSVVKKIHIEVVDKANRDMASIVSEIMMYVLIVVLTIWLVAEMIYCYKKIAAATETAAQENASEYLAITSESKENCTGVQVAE
T7 sequence (O60939 30-215, further chain): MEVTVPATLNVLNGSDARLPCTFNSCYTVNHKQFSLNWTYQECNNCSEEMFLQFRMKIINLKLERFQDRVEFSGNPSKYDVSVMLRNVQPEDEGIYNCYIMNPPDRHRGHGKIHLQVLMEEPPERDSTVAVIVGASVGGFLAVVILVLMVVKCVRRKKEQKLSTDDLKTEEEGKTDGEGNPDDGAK
T3 sequence (P15390 whole entry): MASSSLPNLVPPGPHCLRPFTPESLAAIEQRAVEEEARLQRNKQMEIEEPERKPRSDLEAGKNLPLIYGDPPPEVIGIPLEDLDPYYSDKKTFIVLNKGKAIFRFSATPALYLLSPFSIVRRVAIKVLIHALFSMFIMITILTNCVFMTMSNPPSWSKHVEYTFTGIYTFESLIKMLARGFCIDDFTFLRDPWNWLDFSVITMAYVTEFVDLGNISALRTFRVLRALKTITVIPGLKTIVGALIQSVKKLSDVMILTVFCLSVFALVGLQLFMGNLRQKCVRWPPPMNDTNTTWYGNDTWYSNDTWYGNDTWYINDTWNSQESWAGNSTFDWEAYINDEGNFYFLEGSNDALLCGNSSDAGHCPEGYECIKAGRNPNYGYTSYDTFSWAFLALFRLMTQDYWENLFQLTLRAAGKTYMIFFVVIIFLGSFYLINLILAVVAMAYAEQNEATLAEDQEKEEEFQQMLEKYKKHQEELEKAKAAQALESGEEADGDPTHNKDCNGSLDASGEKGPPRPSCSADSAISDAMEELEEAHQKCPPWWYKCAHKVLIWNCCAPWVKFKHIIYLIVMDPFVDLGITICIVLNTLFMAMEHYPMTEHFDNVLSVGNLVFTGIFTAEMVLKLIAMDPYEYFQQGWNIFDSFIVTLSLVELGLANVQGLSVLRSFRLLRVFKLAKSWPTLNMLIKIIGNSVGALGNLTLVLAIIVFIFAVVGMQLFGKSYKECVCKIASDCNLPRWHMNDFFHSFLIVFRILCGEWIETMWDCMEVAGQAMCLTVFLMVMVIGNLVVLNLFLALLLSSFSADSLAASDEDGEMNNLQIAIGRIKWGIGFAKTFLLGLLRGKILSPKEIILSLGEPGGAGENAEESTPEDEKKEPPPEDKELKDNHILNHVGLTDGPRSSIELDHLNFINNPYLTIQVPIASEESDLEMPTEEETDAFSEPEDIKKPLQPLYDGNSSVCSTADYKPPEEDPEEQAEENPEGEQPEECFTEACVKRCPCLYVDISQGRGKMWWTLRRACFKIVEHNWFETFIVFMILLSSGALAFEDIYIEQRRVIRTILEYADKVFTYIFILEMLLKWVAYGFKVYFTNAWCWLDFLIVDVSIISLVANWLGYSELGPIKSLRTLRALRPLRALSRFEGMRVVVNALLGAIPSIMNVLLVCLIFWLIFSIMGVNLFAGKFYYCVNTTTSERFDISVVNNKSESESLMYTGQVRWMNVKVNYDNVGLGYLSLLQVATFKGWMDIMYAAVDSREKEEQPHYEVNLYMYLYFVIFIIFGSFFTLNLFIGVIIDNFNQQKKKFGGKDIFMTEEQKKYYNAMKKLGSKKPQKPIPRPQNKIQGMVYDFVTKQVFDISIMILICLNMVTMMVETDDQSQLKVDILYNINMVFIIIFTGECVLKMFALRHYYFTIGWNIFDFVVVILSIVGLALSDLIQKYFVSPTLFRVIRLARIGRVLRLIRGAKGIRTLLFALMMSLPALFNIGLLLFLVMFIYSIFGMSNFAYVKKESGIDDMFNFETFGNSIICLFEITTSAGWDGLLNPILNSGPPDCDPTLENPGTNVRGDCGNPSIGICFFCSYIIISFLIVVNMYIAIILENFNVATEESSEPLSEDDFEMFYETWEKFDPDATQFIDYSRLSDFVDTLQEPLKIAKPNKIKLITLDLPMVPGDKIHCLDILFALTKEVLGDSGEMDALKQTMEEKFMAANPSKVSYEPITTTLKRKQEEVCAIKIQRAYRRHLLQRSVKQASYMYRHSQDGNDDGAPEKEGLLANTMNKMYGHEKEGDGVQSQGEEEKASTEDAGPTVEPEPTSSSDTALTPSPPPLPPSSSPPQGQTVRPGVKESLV
T6 sequence (O60939 30-215): as the sequence (O60939 30-215, further chain) above
T6 sequence (Q07699 19-218, further chain): as the sequence (Q07699 19-218, further chain) above
T6 sequence (Q15858 other isoform, or with tags, fused parts or gaps): as the sequence (Q15858 other isoform, or with tags, fused parts or gaps D816N) above, with N816D counted along it

Molecule: CC[C@H](C)[C@@H]1NC(=O)[C@H](Cc2ccccc2)NC(=O)CNC(=O)[C@H](CCC(=O)O)NC(=O)[C@@H]2CSSC[C@H](NC(=O)[C@@H](N)CCC(=O)O)C(=O)NCC(=O)N[C@@H]([C@@H](C)O)C(=O)N[C@@H](CC(C)C)C(=O)N[C@@H](Cc3ccccc3)C(=O)N[C@@H](CO)C(=O)NCC(=O)N[C@H]3CSSC[C@H](NC1=O)C(=O)N[C@@H](CCCCN)C(=O)N[C@@H](CC(C)C)C(=O)N[C@@H](Cc1c[nH]c4ccccc14)C(=O)N[C@H](C(=O)N[C@@H](CCCNC(=N)N)C(=O)N[C@@H](Cc1ccc(O)cc1)C(=O)N[C@@H](CCC(=O)O)C(=O)N[C@@H](CCCNC(=N)N)C(=O)N[C@H](C(=O)N[C@@H](Cc1c[nH]c4ccccc14)C(N)=O)[C@@H](C)O)CSSC[C@H](NC(=O)[C@H](CC(=O)O)NC(=O)[C@H](C)NC(=O)[C@H](Cc1c[nH]cn1)NC(=O)[C@H]([C@@H](C)O)NC(=O)[C@H](CO)NC3=O)C(=O)N2 [HpTx3, Heteropodatoxin3] (H-ECGTLFSGCSTHADCCEGFICKLWCRYERTW-NH2; disulfide 2-16, 9-21, 15-25)
- IC50 (Nav1.2; [8]): 19.7 ± 0.49 µM
- selectivity for Nav1.7 over Nav1.2 (Nav1.2; ratio of IC50): 145 fold
- IC50 (Nav1.3; [8]): 14.1 ± 2.5 µM
- selectivity for Nav1.7 over Nav1.3 (Nav1.3; ratio of IC50): 104 fold
- IC50 (Nav1.4; [8]): 18.5 ± 0.21 µM
- selectivity for Nav1.7 over Nav1.4 (Nav1.4; ratio of IC50): 136 fold
- inhibition at 1 µM (Nav1.5; HEK-293T, 1 μM HpTx3, HEK293T, whole-cell patch-clamp, n = 4–6, read-out: inhibition of Nav1.5 currents): 12.8%
- selectivity for Nav1.7 over Nav1.5 (Nav1.5; ratio of IC50): 122 fold
- inhibition at 1 µM (Nav1.6): 46%
- IC50 (Nav1.7 [1]): 0.136 ± 0.013 µM
- IC50 (Nav1.7 D816N; HEK293T, mean ± SD, n = 6): 3.13 ± 2.6 µM
- inhibition at 1 µM (Nav1.7 D816N; HEK-293T, 1 μM HpTx3, HEK293T, n = 6, read-out: inhibition of Nav1.7 D816N current): 23.7%
- IC50 difference Nav1.7 D816N versus wild type Nav1.7 (Nav1.7 D816N; ratio of IC50): 23 fold
- course of symptoms (C57BL/6 mice; after 5 min and after 10 min): the symptoms became gradually weaker and disappeared completely after 10 min
- symptoms after injection (C57BL/6 mice; within 5 min after injection): some discomfort symptoms such as body curling and writhing
- inhibition of hERG channel current (hERG channel): about 40%

Molecule: O=C1[O][Pt]2([NH][C@@H]3CCCC[C@H]3[NH]2)[O]C1=O [Oxaliplatin]
- effect on nociceptive neuron excitability [2]: increases nociceptive neuron excitability to result in neuropathic pain

Molecule: CN1CC[C@]23c4c5ccc(O)c4O[C@H]2[C@@H](O)C=C[C@H]3[C@H]1C5 [morphine]
- total paw licking time, phase I ([3]; 0–10 min after formalin, control 248 s): 99 s
- total paw licking time, phase II ([3]; 15–35 min after formalin, control 572.7 s): 134.3 s
- time of strongest analgesic effect after injection, CFA [4]: 0.5 h
- paw withdrawal threshold, CFA ([4]; control 0.71 g, n = 8): 1.05 g
- time of most analgesic effect after injection, hot plate [5]: 0.5 h
- average paw withdrawal latency, hot plate ([5]; 55 ± 1 °C, control 5.93 s, n = 8): 11.03 s
- average paw withdrawal threshold, SNI (C57BL/6 mice, SNI model): 1.05 g

Molecule: HwTx-IV: Nav1.7-targeting peptide toxin
- alteration in voltage-dependence of activation and steady-state inactivation of Nav1.7 (Nav1.7 [6]; [9]): less than 5 mV
- effect on I-V relationship for Nav1.7 (Nav1.7 [6]; [9]): do not alter the I-V relationship

Molecule: ProTx-II: typical gating modifier toxin
- shift of Nav1.7 channel activation in the depolarizing direction (Nav1.7 [6]): 31.1 mV
- inhibition of sodium channel subtypes (Nav1.1–1.8): can inhibit multiple sodium channel subtypes (Nav1.1–1.8), but preferentially inhibits hNav1.7
- efficacy in rodent models of acute and inflammatory pain [7]: not efficacious
